We go through 8 cell lines from the supplement of paper PMC10307832.

Common to all, as to experiment: relative viability (nuclei count vs DMSO), 5 days (fraction); higher = more cells survive
Compound in assay [1]: C(C(=O)C(=O)O)Br [Bromopyruvate] + O=C(CCCCCCC(=O)Nc1ccccc1)NO [Vorinostat] (partner 1 µM)
Summed up: (§1)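 Five library-drug doses in √10 steps were combined with a fixed anchor-drug dose, or a single drug was given alone, by pin tool to lung cancer cell lines in 1536-well plates the day after seeding. Nuclei were stained and counted after 5 days. Relative viability is the nuclei count in treated wells over that in vehicle wells, taken as the median of duplicate plates.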

Compound in assay [2]: CC(O)(CS(=O)(=O)c1ccc(F)cc1)C(=O)Nc1ccc(C#N)c(C(F)(F)F)c1 [Bicalutamide] + O=C(CCCCCCC(=O)Nc1ccccc1)NO [Vorinostat] (partner 1 µM)
Summed up:
as §1

Compound in assay [3]: CC(O)(CS(=O)(=O)c1ccc(F)cc1)C(=O)Nc1ccc(C#N)c(C(F)(F)F)c1 [Bicalutamide] + Cc1nc(Nc2ncc(C(=O)Nc3c(C)cccc3Cl)s2)cc(N2CCN(CCO)CC2)n1 [Dasatinib] (partner 0.075 µM)
An outline of the steps: as §1

Compound in assay [4]: CC(O)(CS(=O)(=O)c1ccc(F)cc1)C(=O)Nc1ccc(C#N)c(C(F)(F)F)c1 [Bicalutamide] + Nc1ncn([C@H]2C[C@H](O)[C@@H](CO)O2)c(=O)n1 [Decitabine] (partner 2 µM)
An outline of the steps: as §1

NCI-H2342: the relative viability is 0.807 in assay [1] (first compound 1 µM); 0.806 in assay [1] (first compound 3.162 µM); 0.7 in assay [1] (first compound 10 µM); 0.622 in assay [1] (first compound 31.62 µM); 0.684 in assay [1] (first compound 100 µM); 0.759 in assay [2] (first compound 0.08 µM). The relative viability in assay [2] (first compound 0.253 µM) is 0.767; in assay [2] (first compound 0.8 µM), 0.853; in assay [2] (first compound 2.53 µM) it was 0.801; in assay [3] (first compound 0.08 µM) it was 0.324; in assay [3] (first compound 0.253 µM), 0.276; in assay [3] (first compound 0.8 µM), 0.299. For the same cell line, the relative viability in assay [3] (first compound 2.53 µM) is 0.306; in assay [4] (first compound 0.08 µM), 0.742; in assay [4] (first compound 0.253 µM), 0.717; in assay [4] (first compound 0.8 µM), 0.756; in assay [4] (first compound 2.53 µM), 0.843.

On to SK-MES-1, for which the relative viability was found to be 1.08 in assay [1] (first compound 1 µM); 1.2 in assay [1] (first compound 3.162 µM); 1.04 in assay [1] (first compound 10 µM); 0.94 in assay [1] (first compound 31.62 µM); 0.965 in assay [1] (first compound 100 µM); 1.21 in assay [2] (first compound 0.08 µM). The relative viability is 1.07 in assay [2] (first compound 0.253 µM); 1.19 in assay [2] (first compound 0.8 µM); 1.03 in assay [2] (first compound 2.53 µM); 0.343 in assay [3] (first compound 0.08 µM); 0.358 in assay [3] (first compound 0.253 µM); 0.427 in assay [3] (first compound 0.8 µM). In addition, the relative viability in assay [3] (first compound 2.53 µM) stood at 0.301; in assay [4] (first compound 0.08 µM), 0.497; in assay [4] (first compound 0.253 µM), 0.374; in assay [4] (first compound 0.8 µM), 0.405; in assay [4] (first compound 2.53 µM), 0.416.

As to NCI-H1993, the relative viability came to 0.19 in assay [1] (first compound 1 µM); 0.862 in assay [1] (first compound 3.162 µM); 0.83 in assay [1] (first compound 10 µM); 0.72 in assay [1] (first compound 31.62 µM); 0.842 in assay [1] (first compound 100 µM); 0.864 in assay [2] (first compound 0.08 µM). For the same cell line, the relative viability came out at 0.675 in assay [2] (first compound 0.253 µM); 0.787 in assay [2] (first compound 0.8 µM); 0.705 in assay [2] (first compound 2.53 µM); 0.576 in assay [3] (first compound 0.08 µM); 0.461 in assay [3] (first compound 0.253 µM); 0.711 in assay [3] (first compound 0.8 µM). Also, the relative viability came to 0.582 in assay [3] (first compound 2.53 µM); 0.678 in assay [4] (first compound 0.08 µM); 0.514 in assay [4] (first compound 0.253 µM); 0.647 in assay [4] (first compound 0.8 µM); 0.627 in assay [4] (first compound 2.53 µM).

Consider HCC-366, for which the relative viability in assay [1] (first compound 1 µM) was 0.375; in assay [1] (first compound 3.162 µM), 0.368; in assay [1] (first compound 10 µM), 0.408; in assay [1] (first compound 31.62 µM), 0.307; in assay [1] (first compound 100 µM) it was 0.227; in assay [2] (first compound 0.08 µM) it was 0.368. Moreover, the relative viability in assay [2] (first compound 0.253 µM) is 0.331; in assay [2] (first compound 0.8 µM), 0.52; in assay [2] (first compound 2.53 µM), 0.134; in assay [3] (first compound 0.08 µM) it was 0.556; in assay [3] (first compound 0.253 µM), 0.481; in assay [3] (first compound 0.8 µM) it was 0.749. The relative viability in assay [3] (first compound 2.53 µM) was 0.5; in assay [4] (first compound 0.08 µM) it was 0.369; in assay [4] (first compound 0.253 µM), 0.284; in assay [4] (first compound 0.8 µM), 0.351; in assay [4] (first compound 2.53 µM) it was 0.327.

201T: the relative viability was 0.967 in assay [1] (first compound 1 µM); 1.01 in assay [1] (first compound 3.162 µM); 0.984 in assay [1] (first compound 10 µM); 0.912 in assay [1] (first compound 31.62 µM); 0.971 in assay [1] (first compound 100 µM); 1.11 in assay [2] (first compound 0.08 µM). For the same cell line, the relative viability in assay [2] (first compound 0.253 µM) worked out at 0.957; in assay [2] (first compound 0.8 µM) it was 1.05; in assay [2] (first compound 2.53 µM), 0.977; in assay [3] (first compound 0.08 µM), 0.575; in assay [3] (first compound 0.253 µM) it was 0.566; in assay [3] (first compound 0.8 µM), 0.581. Moreover, the relative viability was 0.57 in assay [3] (first compound 2.53 µM); 0.87 in assay [4] (first compound 0.08 µM); 0.847 in assay [4] (first compound 0.253 µM); 0.857 in assay [4] (first compound 0.8 µM); 0.889 in assay [4] (first compound 2.53 µM).

As for HCC-827, the relative viability in assay [1] (first compound 1 µM) stood at 0.844; in assay [1] (first compound 3.162 µM), 0.982; in assay [1] (first compound 10 µM), 0.968; in assay [1] (first compound 31.62 µM), 0.886; in assay [1] (first compound 100 µM) it was 0.741; in assay [2] (first compound 0.08 µM), 0.921. Further, the relative viability in assay [2] (first compound 0.253 µM) was determined as 0.639; in assay [2] (first compound 0.8 µM) it was 1.15; in assay [2] (first compound 2.53 µM), 0.815; in assay [3] (first compound 0.08 µM), 0.328; in assay [3] (first compound 0.253 µM), 0.19; in assay [3] (first compound 0.8 µM), 0.315. Further, the relative viability in assay [3] (first compound 2.53 µM) is 0.293; in assay [4] (first compound 0.08 µM), 0.337; in assay [4] (first compound 0.253 µM), 0.252; in assay [4] (first compound 0.8 µM) it was 0.384; in assay [4] (first compound 2.53 µM), 0.351.

In the case of NCI-H650, the relative viability in assay [1] (first compound 1 µM) turned out to be 0.438; in assay [1] (first compound 3.162 µM), 0.487; in assay [1] (first compound 10 µM), 0.411; in assay [1] (first compound 31.62 µM), 0.441; in assay [1] (first compound 100 µM), 0.392; in assay [2] (first compound 0.08 µM), 0.449. For the same cell line, the relative viability turned out to be 0.518 in assay [2] (first compound 0.253 µM); 0.513 in assay [2] (first compound 0.8 µM); 0.367 in assay [2] (first compound 2.53 µM); 0.483 in assay [3] (first compound 0.08 µM); 0.42 in assay [3] (first compound 0.253 µM); 0.456 in assay [3] (first compound 0.8 µM). Moreover, the relative viability in assay [3] (first compound 2.53 µM) came out at 0.356; in assay [4] (first compound 0.08 µM), 0.318; in assay [4] (first compound 0.253 µM) it was 0.308; in assay [4] (first compound 0.8 µM), 0.333; in assay [4] (first compound 2.53 µM), 0.335.

Consider NCI-H2085, for which the relative viability in assay [1] (first compound 1 µM) turned out to be 0.769; in assay [1] (first compound 3.162 µM) it was 0.81; in assay [1] (first compound 10 µM), 0.798; in assay [1] (first compound 31.62 µM) it was 0.764; in assay [1] (first compound 100 µM), 0.862; in assay [2] (first compound 0.08 µM), 0.829. The relative viability in assay [2] (first compound 0.253 µM) is 0.741; in assay [2] (first compound 0.8 µM) it was 0.816; in assay [2] (first compound 2.53 µM) it was 0.687; in assay [3] (first compound 0.08 µM), 0.227; in assay [3] (first compound 0.253 µM), 0.261; in assay [3] (first compound 0.8 µM), 0.267. In addition, the relative viability amounted to 0.228 in assay [3] (first compound 2.53 µM); 0.555 in assay [4] (first compound 0.08 µM); 0.601 in assay [4] (first compound 0.253 µM); 0.553 in assay [4] (first compound 0.8 µM); 0.525 in assay [4] (first compound 2.53 µM).
